# In patent US12673039B2, “Methods of inducing autophagy using coumarin derivatives and related compounds” (Buck Institute for Research on Aging, priority 2019, dated 2026):
# Experiments:
# SH-SY5Y cells = experiment: Immunoblot of TFEB, cathepsin-D and SHP-1 in SH-SY5Y cells; assay type: cell-based, human; details: 24 hours
# Experimental: FIG. 23, panels A-H: FXR modulation enhances HLH-30 expression in human neuronal SH-SY5Y cells. Panel A) Effects of AIC106 on human FXR activity was determined in a mammalian one-hybrid based kit assay by quantifying changes in the luciferase activity of FXR ligand (GW4064, GW) induced treatment. [N=3 independent experiments (mean±SD). ****p<0.0001, by one-way ANOVA with Tukey's multiple comparisons test]. Panel B) Protein expression of TFEB, cathepsin-D (CAT-D) and small heterodimer partner-1 (SHP-1) was determined by immunoblot in neuronal SH-SY5Y cells post-24 hours of treatment with AIC106 and DMSO-control. Panel C) AIC106 enhances autophagic flux in neuronal SH-SY5Y cells. Autophagic flux in DMSO-control and AIC106 treated neuronal cells was determined by quantifying levels of autophagosome specific LC3-II protein both in presence and absence of autophagy inhibitor bafliomycin A1 (Baf A, 10 nM). Panel D) Relative fold change in the band intensity of LC3-II protein, normalized to loading control actin. Values are relative to DMSO-control. [N=3 independent experiments (mean±SD). *p<0.05 and ****p<0.0001, by one-way ANOVA with Tukey's multiple comparisons test]. Panel E) Effects of AIC106 treatment for 72 hours on basal TAU and phosphorylated-TAU in differentiated human neuronal SH-SHY5Y and heterozygous TSC1(+/−) mutant SH-SY5Y neuronal cells were quantitated by immunoblotting following total protein extraction. Relative fold change in the band intensity compared to SH-SY5Y control treatment for (panel F) total TAU and (panel G) phosphorylated-TAU, normalized to loading control GAPDH. [N=3 independent experiments (mean±SD). *p<0.05 and **p<0.01, by one-way ANOVA with Sidak's multiple comparisons test]. Panel H) AIC106 treatment improves viability and health of differentiated SH-SY5Y-TSC1(+/−) neuronal cells. Images were taken post-96 hours after treatment of differentiated neuronal cells with AIC106.
# FIG. 30, panels A-B: FXR modulation enhances HLH-30 expression in human neuronal SH-SY5Y cell. Panel A) TFEB expression in SH-SY5Y cells was determined by immunoblot against TFEB in protein lysates collected after 24 hours of treatment with FXR agonist GW4064 and DMSO control. Panel B) Phosphorylated-TAU levels in SH-SY5Y-P301L-TAU cells was determined by immunoblot against (Ser202, Thr205) in protein lysates collected after 24 hours of treatment with known FXR antagonist Z-gugglsterone (z-GG), DY268 and DMSO control.
# C. elegans = experiment: Mitophagy and mitochondrial function in C. elegans; assay type: in vivo
# Source text: FIGS. 13A-13B illustrate that coumarin 106 (“C1”, “AIC106”) promotes increased indices of mitophagy. FIG. 13A) Representative images and GFP quantification of mitochondrial content at day-5 adult worms (pges-1mtGFP; bottom) of mito::GFP reporter strains (GFP tagged to mitochondrial localizing signals) treated with C1 or DMSO control. FIG. 13B) Visualizing mitochondrial fission using mito::GFP (pmyo-3mtGFP) reporter strain. Representative GFP image shown in upper panel. Representative images (lower panel) showing mitochondrial fission after 48 hrs of C1 or control treatment (63× oil). Images converted to black & white format using NIH ImageJ software for quantification of fragmented mitochondria, denoted as white puncta here.
# FIGS. 14A-14B illustrate that coumarin 106 (“C1”, “AIC106”) results in increases in mitochondrial function. FIG. 14A) Basal and maximal respiration measured in live worms in the Seahorse following addition of C1 (50, 200 μM). Values are reported as oxygen consumption rate (OCR, pmol/min/mg protein)+/− FCCP addition; *p<0.05; **p<0.01. FIG. 14B) Sensitivity to treatment for with increasing concentrations of the mitochondrial uncoupler FCCP in the absence and presence of C1 (20, 50 μM; 1 hr). Values are reported as % of live worms per plate, *p<0.01 versus FCCP alone.
# FIG. 20, panels A-H: AIC106 treatment improves mitochondrial health. Panel A) Changes in mitochondrial membrane potential were determined by quantifying fluorescence intensity of individual TMRM stained wild type N2 worms post-24 hours treatment with AIC106 and DMSO-control. [N=3 independent experiments (mean±SD). ****p<0.0001, by unpaired t-test]. Panel B) TMRM stained wild type N2 worms were monitored by fluorescence microscopy. Panel C) Mitophagy flux upon AIC106 treatment was determined in DLM14 young adult worms (TOMM-7 tagged to a peptide linked dual-Fluorescent GFP) by quantifying relative fold changes in ratio of monomeric-fluorescent protein (mFP) to dual-fluorescent protein (dFP) compared to DMSO-control. Panel D) Ability of AIC106 to rescue mitochondrial toxin (FCCP) sensitivity was determined as percent survival of 24 hours treated AIC106 and DMSO-control wild type N2 worms. [N=3 independent experiments (mean±SD). ****p<0.0001, by two-way ANOVA with Sidak's multiple comparisons test]. Panel E) Ability of AIC106 to rescue enhanced mitochondrial toxin (FCCP, 20 μM) sensitivity in mitophagy deficient parkin/pdr-1 mutant was determined as percent survival of 24 hours treated AIC106 and DMSO-control pdr-1(tm598) and pdr-1(tm598); hlh-30(tm1978) mutant. [N=3 independent experiments (mean±SD). *p<0.05, by two-way ANOVA with Sidak's multiple comparisons test]. Panel F) Effect of AIC106 on mitochondrial biogenesis was determined by quantifying GFP fluorescence intensity in an individual SJ4143 worm (GFP targeted in mitochondria of intestinal cells) post-72 hours of treatment with AIC106 and DMSO-control. [N=3 independent experiments (mean±SD). ****p<0.0001, by unpaired t-test]. Panel G) SJ4143 worms were monitored by fluorescence microscopy. Panel H) Effects of AIC106 on basal (B) and maximum (M) mitochondrial respiration rate were determined by quantifying oxygen consumption rate (OCR) in wild type N2 and hlh-30(tm1978) mutant strain post-24 hours of treatment with AIC106 and DMSO-control. [N=3 independent experiments (mean±SD). *p<0.05, ***p<0.001 and ****p<0.0001, by one-way ANOVA with Tukey's multiple comparisons test].
# FIG. 27, panels A-C: AIC106 induces mitophagy and increases lifespan. Panel A) Relative fold change in mRNA of key mitophagy genes including dct-1, pink-1 and pdr-1 was quantified by qRT-PCR after DMSO-control and AIC106 24 hours treatment in young adult N2 and hlh-30(tm1978) mutants. [N=3 independent experiments (mean±SD). **p<0.01 and ****p<0.0001, by two-way ANOVA with Sidak's multiple comparisons test]. […]
smiles,measurement,setting,value
"O=c1oc2c3c4c(cc2c2c1CCC2)CCCN4CCC3 [C1, 2,3,6,7,10,11-Hexahydro-1H,5H-cyclopenta(3,4)(1)benzopyrano(6,7,8-ij)quinolizin-12(9H)-one]",TFEB protein expression,SH-SY5Y cells,increased expression TFEB protein
same,cathepsin D (CATD) protein expression,SH-SY5Y cells,enhanced protein expression of TFEB target gene cathepsin D
same,small heterodimer partner-1 (SHP-1) expression,SH-SY5Y cells,"reduced expression of ligand-bound FXR target, small heterodimer partner-1"
same,mitophagy flux (mFP),"C. elegans; DLM14 worms (FIG. 20, panel C)",increased mFP expression
same,mitophagy,C. elegans; FIG. 13,elevated mitophagy
same,mitochondrial health,C. elegans; FIG. 14,improvement in mitochondrial health
same,mRNA of mitophagy specific genes,"C. elegans; N2, hlh-30 dependent (FIG. 27, panel A)",elevated mRNA abundance of key mitophagy specific genes including dct-1 and pink-1
same,mitochondrial membrane potential (TMRM fluorescence),"C. elegans; N2 worms, 24 hours",significant decrease in the MMP
same,mitochondrial content (GFP),"C. elegans; SJ4143 worms, 72 hours",increased mitochondrial content
same,maximum respiration capacity (OCR),C. elegans; hlh-30 mutant worms,failed to show any increase in the maximum respiration capacity
same,maximum respiration capacity (OCR),"C. elegans; wild type N2, 24 hours",increase maximum respiration capacity
